# Test results: PMC11766601, “A Comparative Study of the In Vitro Intestinal Permeability of Pinnatoxins and Portimine” (Marine Drugs, 2025)
# How the values were obtained:
# Caco-2 cells = test: Trans-epithelial electrical resistance (TEER) of differentiated Caco-2 monolayers; format: cell-based, human; settings: 24 h, all of the concentrations (8, 16, 32 ng/mL)
# Method: (§1) All experiments were performed with human intestinal Caco-2 cells (ATCC-HTB37), acquired from the American Type Culture Collection (ATCC; Manassas, VA, USA). Caco-2 cells originate from a colorectal adenocarcinoma, but upon reaching confluence, they differentiate and express the characteristics of enterocytes. The cells were cultivated in minimum essential medium containing 5.5 mM D-glucose, Earle’s salts, and 2 mM L-alanyl-glutamine (MEM GlutaMAX™, Gibco, Bromont, QC, Canada) supplemented with 10% fetal bovine serum (FBS, Gibco), 1% non-essential amino acids, 50 U/mL penicillin, and 50 μg/mL streptomycin (Gibco) under humidified conditions (37 °C, 5% CO2, 95% humidity). The cells were grown for 3–4 days up to 80% confluence before trypsinization and sub-culture. For the experiments, the cells were seeded in TRANSWELL® plates (12 wells, 0.4 µm pore size; Costar®, Corning Incorporated, Corning, NY, USA) at a density of 90,000 cells/cm^2. Prior to toxin treatment, highly differentiated Caco-2 cells were obtained after 24–26 days of culture, with medium renewal every 2–3 days. Passage numbers between 30 and 40 were used for experiments.
# (§2) PnTX-A, PnTX-G, PnTX-E, PnTX-H, and portimine stock solutions were prepared in methanol, while PnTX-F was provided in acetonitrile/acetic acid (50%/0.1%). For each toxin, the cells were incubated at 8, 16, and 32 ng/mL (diluted in HBSS) for 2 h, 6 h, and 24 h, with a final volume of 1.5% solvent. The controls were incubated with the cell culture medium containing the respective solvent of the toxin at 1.5%. Each experiment included three biological replicates. Two to three independent experiments were conducted.
# Epithelial integrity was examined by measuring the TEER between the apical and basolateral compartments. After rinsing with a HBSS solution (HBSS, HEPES 5 mM, pH 7.4), the Caco-2 monolayers were equilibrated for 30 min at 37 °C with 300 and 1000 µL HBSS in the apical (A) and basolateral (B) chambers, respectively. Then, the content of the apical compartment was replaced with 500 µL HBSS-containing toxins. TEER was quantified with a Millipore Millicell Electrical Resistance System (ERS Millipore, EMD Millipore Corporation, Burlington, MA, USA). The mean value of two measurements per well before and after the treatment was calculated and multiplied by the surface of the insert to obtain Ω × cm^2. After blank subtraction, the results were presented as a percentage of the solvent control.
# Caco-2 cell monolayers [1] = test: Lucifer Yellow paracellular permeability (barrier integrity); format: cell-based, human; settings: 24 h, all concentrations (8, 16, 32 ng/mL)
# Method: as §1, §2
# For the assay, both compartments of the insert system were washed with Hank’s balanced salt solution (HBSS). Then, 0.5 mL of 0.1 mg/mL Lucifer Yellow in HBSS buffer and 1 mL of pure HBSS buffer were added to the apical and basolateral compartments, respectively. After a 2 h incubation at 37 °C, the media of the basolateral compartments were collected and the fluorescence of each compartment was measured in triplicate (excitation: 405 nm, emission: 520 nm) with a FLUOstar Optima microplate reader (BMG Labtech, Ortenberg, Germany). After subtraction of the blank (HBSS), the permeability of the […] was calculated against the value obtained for pure LY and reported as % permeability.
# [2] = Toxin crossing and apparent permeability across Caco-2 cell monolayers (A to B), LC-MS/MS; format: in vitro ADME, human; settings: human, Caco-2, A to B
# Method: as §1, §2
# (§3) The apical and basolateral compartments were collected after 2, 6, and 24 h treatment time. Parts of the solutions that were used to load the apical compartments were also stored (T0) to take into account the real concentration and not the estimated concentration. All the samples were stored at −20 °C until LC/MS analysis.
# (§4) The LC-MS/MS analysis of toxins was implemented for the quantitative analysis of toxins. The LC system was an Agilent 1200 (Agilent Technologies, Santa Clara, CA, USA). The chromatographic separation was performed using a column Hypersil GOLD® C18 50 mm × 2.1 mm, 1.9 μm (Thermo Scientific, Waltham, MA, USA). Eluent A consisted of water, and eluent B of acetonitrile/water at a ratio of 95:5 (v/v), with both eluents containing 50 mM formic acid and 2 mM ammonium formate. The LC flow rate was 0.4 mL/min, and the gradient was programmed as follows: 10% B held for 0.5 min, 10–90% B in 5 min, 90% B held for 1 min, 90–10% B in 0.5 min, and 10% B held for 3.0 min, for a total run time of 10 min. The injection volume was 5 μL, while the column temperature was maintained at 40 °C. The column effluent was transferred via a divert valve (Valco Instruments Co., Inc., Houston, TX, USA), either to the mass spectrometer (between 1.7 and 5.5 min) or to waste.
# (§5) The detection system was constructed with an API 4000 triple quadrupole mass spectrometer (Sciex, Framingham, MA, USA) equipped with an ElectroSpray Ionization (ESI) source (Turbo V). The mass spectrometer was operated in positive ESI mode. The source temperature was set at 600 °C, and the spray voltage was 5500 V. Air was used as a nebulizer gas and an auxiliary gas, with a gas pressure of 40 and 60 psi, respectively. Meanwhile, the curtain gas and collision gas were nitrogen, with a gas pressure of 15 and 8 psi, respectively. The mass spectrometer was operated in multiple reaction monitoring mode (MRM). One transition was used for quantification (Q) and another as a qualifier transition (q). A mass resolution of 0.7 Da full width at half maximum (FWHD) was set on the first (Q1) and the third (Q3) quadrupoles. Instrument control and data were handled with Analyst software version 1.5.1 (Sciex, Framingham, MA, USA).
# (§6) The portimine and PnTX retention times varied between 2.7 and 4.4 min (Figure S1). […]
# Caco-2 cell monolayers [3] = test: as above; format: in vitro ADME, human; settings: for % theoretical amount of toxin crossing the Caco-2 cell monolayers: relative to theoretical loaded concentration; for Percentage of toxin crossing the Caco-2 cell monolayers: A to B, relative to quantified T0
# Method: as §1, §2, §3, §4, §5, §6
# cancer cells = settings: observed by several methods; cited from earlier work
# mice = settings: cited from earlier work
structure (smiles),measurement,setting,value
"C=CC1=CC2C3O[C@]4(CCC(O4)[C@@H](C)C[C@@H](O)C3=O)C[C@H](O)C3=NCC[C@@]32CC1 (stereo partly drawn) [Portimine, portimine]",TEER,Caco-2 cells,10.02 ± 0.96 % of control value
same,effect on LY permeability,Caco-2 cell monolayers [1],significant increase
same,"Papp at 2 h, 8 ng/mL","[2]; 2 h, loaded 8 ng/mL",5.72 ± 0.91 ×10⁻⁶ cm/s
same,"Papp at 2 h, 16 ng/mL","[2]; 2 h, loaded 16 ng/mL",9.6 ± 0.55 ×10⁻⁶ cm/s
same,"Papp at 2 h, 32 ng/mL","[2]; 2 h, loaded 32 ng/mL",14.4 ± 5.27 ×10⁻⁶ cm/s
same,"Papp at 6 h, 8 ng/mL","[2]; 6 h, loaded 8 ng/mL",15 ± 2.29 ×10⁻⁶ cm/s
same,"Papp at 6 h, 16 ng/mL","[2]; 6 h, loaded 16 ng/mL",19 ± 349 ×10⁻⁶ cm/s
same,"Papp at 6 h, 32 ng/mL","[2]; 6 h, loaded 32 ng/mL",24.5 ± 3.01 ×10⁻⁶ cm/s
same,% theoretical amount of toxin crossing the Caco-2 cell monolayers,"Caco-2 cell monolayers [3]; 2 h, 8 ng/mL",8.50 ± 1.25%
same,% theoretical amount of toxin crossing the Caco-2 cell monolayers,"Caco-2 cell monolayers [3]; 2 h, 16 ng/mL",13.33 ± 1.69%
same,% theoretical amount of toxin crossing the Caco-2 cell monolayers,"Caco-2 cell monolayers [3]; 2 h, 32 ng/mL",20.73 ± 7.28%
same,Percentage of toxin crossing the Caco-2 cell monolayers,"Caco-2 cell monolayers [3]; 2 h, loaded 8 ng/mL",9.23 ± 1.46%
same,Percentage of toxin crossing the Caco-2 cell monolayers,"Caco-2 cell monolayers [3]; 2 h, loaded 16 ng/mL",15.48 ± 0.89%
same,Percentage of toxin crossing the Caco-2 cell monolayers,"Caco-2 cell monolayers [3]; 2 h, loaded 32 ng/mL",23.25 ± 6.88%
same,% theoretical amount of toxin crossing the Caco-2 cell monolayers,"Caco-2 cell monolayers [3]; 6 h, 8 ng/mL",22.33 ± 3.36%
same,% theoretical amount of toxin crossing the Caco-2 cell monolayers,"Caco-2 cell monolayers [3]; 6 h, 16 ng/mL",26.08 ± 3.00%
same,% theoretical amount of toxin crossing the Caco-2 cell monolayers,"Caco-2 cell monolayers [3]; 6 h, 32 ng/mL",34.60 ± 4.41%
same,Percentage of toxin crossing the Caco-2 cell monolayers,"Caco-2 cell monolayers [3]; 6 h, loaded 8 ng/mL",24.23 ± 3.69%
same,Percentage of toxin crossing the Caco-2 cell monolayers,"Caco-2 cell monolayers [3]; 6 h, loaded 16 ng/mL",30.63 ± 5.62%
same,Percentage of toxin crossing the Caco-2 cell monolayers,"Caco-2 cell monolayers [3]; 6 h, loaded 32 ng/mL",39.45 ± 4.86%
same,mechanism of transport from the apical to the basolateral compartment,Caco-2 cell monolayers [3]; inferred from concentration-dependent Papp,passive diffusion
same,permeability / oral bioavailability class from Caco-2 Papp,Caco-2 cell monolayers [3]; threshold Papp > 1.5 × 10^−6 cm·s^−1 = highly penetrative,high oral bioavailability
same,apoptosis induction,cancer cells,induces apoptosis
same,acute intraperitoneal toxicity,mice,not very toxic
